Reference: patent publication US20090311685A1, “NMU-GHSR1b/NTSR1 oncogenic signaling pathway as a therapeutic target for lung cancer” (Oncotherapy Science, Inc, priority 2006, published 2009)

Columns and labels:
COS-7 cells = assay: Autocrine assay: growth of cells cultured with NMU-25 (MTT, colony formation); type: cell-based; details: 0.3 to 15 μM, vs BSA control, 144 hours
Description: To confirm the autocrine function of NMU in the growth of mammalian cells, COS-7 cells were cultured in medium containing the active form of a 25-amino-acid polypeptide of NMU (NMU-25; Sigma-Aldrich Co.) at final concentrations of 0.3 to 15 μM. The same concentrations of BSA served as controls. The peptides/proteins were added every 48 hours for 6 days. At the 144-hours time point, cell proliferation was evaluated by MTT and colony-formation assays.

[1] = biological target: T1, endogenous GHSR1b and NTSR1 on PC14 cells (Homo sapiens, UniProt P30989+Q92847); assay: Ligand-receptor binding assay with Cy5-labeled NMU-25; details: 10-fold excess unlabeled NMU-25
T1 construct: endogenous in cells; host or cells: PC14
Description: (§1) To confirm the binding of NMU-25 to endogenous candidate receptors on the NSCLC cell, a receptor-ligand binding assay using LC319 and PC14 cells that express GHSR1b and NTSR1, but not NMU1R and NMU2R were performed. Specifically, trypsinized cells were seeded onto a 96-well (with black wall and clear bottom) microtiter plates 24 hours prior to the assay. The medium was removed and the cells were incubated with CyS-labeled NMU-25 peptide (1 μM) with or without the addition of 10-fold excess unlabeled NMU-25 peptide as the competitor. The plate was incubated in dark for 24 hours at 37° C. and then scanned on 8200 Cellular Detection System (Applied Biosystems) to quantify the amount of CyS fluorescence probe bound to the surface of each cell. (15) Immunocytochemistry for Internalized Receptors

[2] = biological target: T2, endogenous GHSR1b and NTSR1 on LC319 cells (Homo sapiens, UniProt P30989+Q92847); assay: as above; details: 10-fold excess unlabeled NMU-25
T2 construct: endogenous in cells; host or cells: LC319
Description: as §1

LC319 cells [3] = assay: Measurement of cAMP levels (cAMP EIA); type: cell-based, human; details: for cAMP production: final concentrations of 3 to 100 μM
Description: (§2) Trypsinized LC319, REF-LC-AI, NCI-H358 and SK-MED-1 cells were seeded onto a 96-well microtiter plate (5.0×10^4 cells) and cultured in appropriate medium supplemented with 10% FCS for 24 hours, and then the medium was changed to serum free/1 mM IBMX (isobutylmethylxanthine) 20 min prior to the assay. Next, the cells were incubated with individual concentrations of peptides (NMU-25, GHRL, or NTS) for 20 min and cAMP levels of the cells were measured using cAMP EIA System (GE Healthcare Bio-sciences).

SK-MES-1 cells = assay: Measurement of cAMP levels (cAMP EIA); type: cell-based, human; details: expressing either of the receptors, 3 to 50 μM
Description: as §2

NCI-H358 cells = assay: Measurement of cAMP levels (cAMP EIA); type: cell-based, human; details: expressing either of the receptors, 3 to 50 μM
Description: as §2

RERF-LC-AI cells = assay: Measurement of cAMP levels (cAMP EIA); type: cell-based, human; details: both receptors at low levels, 3 to 50 μM
Description: as §2

GHSR1b/NTSR1 [4] = biological target: T3, GHSR1b/NTSR1 (Homo sapiens, UniProt P30989+Q92847); assay: Immunocytochemistry for internalized receptors, endogenous receptors in LC319 cells; type: cell-based
T3 construct: endogenous in cells; host or cells: LC319

GHSR1b/NTSR1 [5] = biological target: T4, GHSR1b/NTSR1 (Homo sapiens, UniProt P30989+Q92847, A200T); assay: Immunocytochemistry for internalized receptors, transfected COS-7 cells; type: cell-based; details: COS-7 cells with introduced receptors, 10 μM, time-dependent
T4 construct: expressed in transfected cells; host or cells: COS-7
Description: To investigate the association of NMU-25 with its candidate receptors, GHSR1b and NTSR1, the following experiments were performed. The entire coding region of each of the receptor genes was amplified by RT-PCR using primers: […]
The products were digested with EcoRI and BamHI and cloned into appropriate sites of p3XFLAG-CMV10 vector (Sigma-Aldrich Co.). COS-7 cells were transfected with FLAG-tagged GHSR1b or NTSR1 expression plasmid using FuGENE 6 Transfection Reagent as described above. The cells subjected to internalization assays were exposed to NMU-25 (10 μM) for 120 min. The cells were then fixed with 4% paraformaldehyde solution for 15 min at 37° C., and washed with PBS(−). Specimens were incubated in PBS(−) containing 0.1% Triton X-100 for 10 min and subsequently washed with PBS(−). Prior to primary antibody reaction, the cells were incubated in CAS-BLOCK (ZYMED Laboratories Inc.) for 10 min to block non-specific antibody binding. Then, the cells were incubated with both rabbit polyclonal and anti-GHSR antibody and goat polyclonal anti-NTSR1 antibody. The antibodies were stained with both anti-rabbit secondary antibody conjugated to Alexa Fluor 488 (Molecular Probes) and anti-goat secondary antibody conjugated to Alexa Fluor 594 (Molecular Probes). […] Images were viewed and assessed using confocal microscopy (TCS SP2 AOBS; Leica Microsystems).

FOXM1 = assay: Induction of FOXM1 expression by NMU ligand-receptor signaling in LC319 cells; type: cell-based, human; details: 25 μM, vs BSA control
Description: Total RNA was extracted from cultured cells and clinical tissues using Trizol reagent (Life Technologies, Inc.) according to the manufacturer's protocol. Extracted RNAs and normal human tissue poly(A) RNAs were treated with DNaseI (Nippon Gene) and were reverse-transcribed using oligo(dT)20 primer and SuperSpcript II reverse transcriptase (Invitrogen). Semiquantitative RT-PCR experiments were carried out with the following synthesized gene-specific primers and beta-actin (ACTB)-specific primers as internal control: […]

NMU1R-expressing cells = biological target: T5, NMU1R-expressing cells (Homo sapiens, UniProt Q9HB89); details: cited from earlier work
T5 construct: host or cells: NMU1R-expressing cells
T5 sequence (Q9HB89 1-426): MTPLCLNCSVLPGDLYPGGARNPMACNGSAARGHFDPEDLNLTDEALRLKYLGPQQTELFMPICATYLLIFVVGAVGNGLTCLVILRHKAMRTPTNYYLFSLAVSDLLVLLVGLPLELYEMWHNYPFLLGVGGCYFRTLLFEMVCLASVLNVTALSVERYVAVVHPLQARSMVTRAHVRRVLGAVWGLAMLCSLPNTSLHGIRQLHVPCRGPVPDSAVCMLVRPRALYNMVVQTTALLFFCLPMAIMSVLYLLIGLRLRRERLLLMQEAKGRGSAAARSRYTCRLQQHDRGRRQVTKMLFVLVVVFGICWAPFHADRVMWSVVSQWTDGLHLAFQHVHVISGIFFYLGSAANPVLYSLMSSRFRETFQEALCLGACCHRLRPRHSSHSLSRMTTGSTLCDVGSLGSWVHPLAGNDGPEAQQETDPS

LC319 cells [6] = assay: Intracellular Ca^2+ mobilization assay (FLIPR); type: cell-based, human
Description: Trypsinized LC319 cells were seeded onto poly-D-lysine coated 384-well black-wall, clear-bottom microtiter plate (1.0×10^4 cells/ml) 24 hours prior to the assay. The cells were loaded for 1 hour with 4 μM Fluo-3-AM fluorescent indicator dye in assay buffer (Hank's balanced salt solution, 20 mM HEPES, 2.5 mM probenecid), washed three times with assay buffer, and then incubated for 10 min at room temperature before detection on fluorometric imaging plate reader (FLIPR; Molecular Devices). Fluorescence data of Ca^2+ release were collected in real-time at 1 sec intervals for the first 65 sec and at 3 sec intervals for additional 300 sec after individual concentrations of peptide (NMU-25, […], or NTS) treatment. Maximum change in fluorescence over baseline was measured to determine the response of the cells to the individual peptide stimulations.

NSCLC cells = assay: Competition of NMU-induced cAMP production; type: cell-based

T4 sequence (Q92847 1-289 isoform Q92847-2, stated change not applied): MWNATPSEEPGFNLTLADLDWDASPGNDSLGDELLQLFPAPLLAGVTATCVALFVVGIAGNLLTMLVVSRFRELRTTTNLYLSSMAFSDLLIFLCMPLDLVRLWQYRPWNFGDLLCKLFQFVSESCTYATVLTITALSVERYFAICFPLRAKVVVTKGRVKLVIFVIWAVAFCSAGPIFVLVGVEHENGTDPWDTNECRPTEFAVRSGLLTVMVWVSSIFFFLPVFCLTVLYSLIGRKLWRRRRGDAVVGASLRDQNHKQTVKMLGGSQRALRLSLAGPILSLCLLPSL
T4 sequence (P30989 whole entry A200T): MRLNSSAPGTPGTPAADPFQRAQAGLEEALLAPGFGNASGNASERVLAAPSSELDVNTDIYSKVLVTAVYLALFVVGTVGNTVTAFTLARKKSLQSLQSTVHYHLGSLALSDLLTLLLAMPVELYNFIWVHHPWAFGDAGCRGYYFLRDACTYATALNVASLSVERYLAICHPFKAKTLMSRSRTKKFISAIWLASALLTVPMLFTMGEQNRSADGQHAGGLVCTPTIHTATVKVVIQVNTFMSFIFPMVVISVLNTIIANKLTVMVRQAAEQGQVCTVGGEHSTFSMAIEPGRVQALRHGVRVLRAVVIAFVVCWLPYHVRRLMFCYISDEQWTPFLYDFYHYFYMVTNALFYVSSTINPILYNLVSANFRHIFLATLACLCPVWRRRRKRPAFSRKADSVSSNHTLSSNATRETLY
T3 sequence (Q92847 1-289 isoform Q92847-2): as the sequence (Q92847 1-289 isoform Q92847-2, stated change not applied) above
T3 sequence (P30989 whole entry): as the sequence (P30989 whole entry A200T) above, with T200A counted along it
T2 sequence (Q92847 1-289 isoform Q92847-2): as the sequence (Q92847 1-289 isoform Q92847-2, stated change not applied) above
T2 sequence (P30989 whole entry): as the sequence (P30989 whole entry A200T) above, with T200A counted along it
T1 sequence (Q92847 1-289 isoform Q92847-2): as the sequence (Q92847 1-289 isoform Q92847-2, stated change not applied) above
T1 sequence (P30989 whole entry): as the sequence (P30989 whole entry A200T) above, with T200A counted along it

| Substance | cell growth (MTT assay) (COS-7 cells) | cell growth (colony-formation assay) (COS-7 cells) | binding activity of Cy5-labeled NMU-25 with unlabeled competitor [1] | binding activity of Cy5-labeled NMU-25 with unlabeled competitor [2] | cAMP production (LC319 cells [3]) | intracellular cAMP production by NMU-25 (FIG. 3A) (LC319 cells [3]; high levels of both receptors, 3 to 50 μM) | intracellular cAMP production by NMU-25 (FIG. 3D) (SK-MES-1 cells) | intracellular cAMP production by NMU-25 (FIG. 3C) (NCI-H358 cells) | intracellular cAMP production by NMU-25 (FIG. 3B) (RERF-LC-AI cells) | subcellular distribution of GHSR1b and NTSR1 after stimulation (GHSR1b/NTSR1 [4]) | subcellular distribution of GHSR1b and NTSR1 after stimulation (GHSR1b/NTSR1 [5]) | expression of FOXM1 (FOXM1) | displacement of 125I-labeled rat NMU-binding (NMU1R-expressing cells) | intracellular Ca^2+ flux / mobilization (LC319 cells [6]) | NMU-induced cAMP production (NSCLC cells) |
| --- | --- | --- | --- | --- | --- | --- | --- | --- | --- | --- | --- | --- | --- | --- | --- |
| NMU-25: active form of a 25-amino-acid polypeptide of NMU (Sigma-Aldrich Co.) (FRVDEEFQSPFASQSRGYFLFRPRN) | enhanced cell growth in a dose-dependent manner | enhanced cell growth in a dose-dependent manner | inhibited | inhibited | Enhancement of cAMP production | marked and reproducible cAMP accumulation | did not show detectable cAMP production | did not show detectable cAMP production | not significant but low cAMP production | induced co-internalization | co-internalized | enhanced expression of FOXM1 | – | – | – |
| ghrelin (GSSFLSPEHQRVQQRKESKKPPAKLQPR) [GHRL, 28-amino-acid peptide, known ligand of GHSR] | – | – | – | – | did not enhance | – | – | – | – | – | – | – | did not displace | not the treatment with GHRL caused the mobilization response | competitively inhibited |
